Laboratory results taken from patent US4500712A, “Ergoline derivatives” (Farmitalia Carlo Erba S.p.A., priority 1981, dated 1985).

Key:
restraint ulcers = assay: Inhibition of restraint ulcers in rats (Bonfils et al.); type: in vivo, Sprague-Dawley male rats; details: 1 h; rat, oral, one hour before immobilization; read-out: Anticular activity (ED50, mg/kg p.o.)
Method: The anti-ulcerogenic activity of the compounds of the present invention is shown, e.g., by the fact that they are active in the test of the inhibition of restraint ulcers in rats, according to the method of Bonfils et al., (Therapie, 1960, 15, 1096). According to this method the tested compounds were administered per os one hour before the immobilization.
Six Sprague-Dawley male rats (100-120 g), fasted 24 hours, were used for the experiment: a square flexible small-mesh wire netting was used for the immobilization and 4 hours after the immobilization the rats were sacrificed, their stomachs were removed and the lesions counted under a dissecting microscope.

gastric secretion = assay: Gastric antisecretory activity in pylorus-ligated rats (Shay et al.); type: in vivo, Sprague-Dawley male rats; details: 4 h; rat, intraduodenal, at the time of ligature; read-out: Antisecretory activity (ED50, mg/kg i.d.)
Method: According to this method the tested compounds were injected intraduodenally at the time of ligature. Six Sprague-Dawley male rats (110-130 g) were used for each group. Twenty-four hours before the test, the rats were deprived of food but the water supply was maintained. On the day of the operation, the pylorus was ligated under light ether anaesthesia. Four hours after the ligature, the rats were sacrificed. The stomach secretion was collected and centrifuged at 3500 r.p.m. for 10 minutes and the volume, less sediment, was determined. The amount of free hydrochloric acid in the gastric juice was determined by titration against 0.01N sodium hydroxide, to an end point of pH 7.

[1] = tested on: systolic blood pressure (S.B.P.) in SH-rats; assay: Systolic blood pressure in spontaneously hypertensive rats (indirect tail cuff method); type: in vivo, spontaneously hypertensive rats (SHR, Kyoto)
Method: (§1) Indirect measurements of systolic blood pressure were carried out on groups of 4 spontaneously hypertensive rats (SHR, Kyoto), 8-10 weeks of age, supplied by Charles Rives, Italy.
(§2) The animals were maintained in an environment of 36° C. for 10-15 minutes to allow pulse pressure to be recorded and then systolic blood pressure and heart rate were measured by indirect tail cuff method using a W+W, BP recorder, model 8005.
(§3) The compounds were given orally, suspended in 5% arabic gum, once a day for 4 consecutive days and measurements were carried out before beginning the treatment and 1 and 5 hours after dosing in both the first and fourth day of treatment.
(§4) Control animals received the vehicle only (0.2 ml/100 g b.w.). As reference standards, hydralazine (1-5 mg/kg p.o.) and α-methyl-dopa (30-100 mg/kg p.o.) were also tested.
(§5) Drug-induced changes in systolic blood pressure and heart rate were calculated as differences from the pretreatment values.

[2] = tested on: heart rate (HR) in SH-rats; assay: Heart rate in spontaneously hypertensive rats (indirect tail cuff method)
Method: as §1, §2, §3, §4, §5

[3] = tested on: syndrome induced by oxotremorine; details: general statement; cited from earlier work
[4] = 5 mg/kg p.o., 1st day, 1 h post drug
[5] = 5 mg/kg p.o., 1st day, 5 h post drug
[6] = 5 mg/kg p.o., 4th day, 1 h post drug
[7] = 5 mg/kg p.o., 4th day, 5 h post drug
[8] = 1 mg/kg p.o., 1st day, 1 h post drug
[9] = 1 mg/kg p.o., 1st day, 5 h post drug
[10] = 1 mg/kg p.o., 4th day, 1 h post drug
[11] = 1 mg/kg p.o., 4th day, 5 h post drug

Compound: CN1C[C@@H](CNC(=S)NC(=O)c2ccccc2)C[C@H]2c3cccc4[nH]cc(c34)C[C@H]21 [Ex 1, 6-Methyl-8α-(3-benzoyl-thioureidomethyl)-10β-ergoline]
- ED50 (restraint ulcers): 4.2 mg/kg
- ED50 (gastric secretion): 2.5 mg/kg

Compound: CN1C[C@H](CNC(=S)NC(=O)c2ccccc2)C[C@@H]2c3cccc4[nH]cc(c34)C[C@H]21 [Ex 2, 6-Methyl-8β-(3-benzoyl-thioureidomethyl)-ergoline]
- ED50 (restraint ulcers): 0.7 mg/kg
- ED50 (gastric secretion): 1.4 mg/kg

Compound: CC(=O)NC(=O)NC[C@@H]1C[C@@H]2c3cccc4[nH]cc(c34)C[C@H]2N(C)C1 [Ex 9, 6-Methyl-8β-(3-acetyl-ureidomethyl)-ergoline]
- Changes in S.B.P [1, 4]: -25 ΔmmHg
- Changes in S.B.P [1, 5]: -17 ΔmmHg
- Changes in S.B.P [1, 6]: -57 ΔmmHg
- Changes in S.B.P [1, 7]: -56 ΔmmHg

Compound: CN1C[C@@H](CNC(=O)NC(=O)c2ccccc2)C[C@@H]2c3cccc4[nH]cc(c34)C[C@H]21 [Ex 10, 6-Methyl-8α-(3-benzoyl-ureidomethyl)-ergoline]
- ED50 (restraint ulcers): 7 mg/kg
- ED50 (gastric secretion): 1 mg/kg

Compound: CC(=O)NC(=O)NC[C@H]1C[C@@H]2c3cccc4[nH]cc(c34)C[C@H]2N(C)C1 [Ex 26, 6-Methyl-8α-(3-acetyl-ureidomethyl)-ergoline]
- Changes in S.B.P [1, 4]: -28 ΔmmHg
- Changes in S.B.P [1, 5]: -60 ΔmmHg
- Changes in S.B.P [1, 6]: -45 ΔmmHg
- Changes in S.B.P [1, 7]: -36 ΔmmHg

Compound: NNc1nncc2ccccc12 [Hydralazine, hydralazine]
- Changes in S.B.P [1, 8]: -5 ΔmmHg
- Changes in S.B.P [1, 9]: -15 ΔmmHg
- Changes in S.B.P [1, 10]: -5 ΔmmHg
- Changes in S.B.P [1, 11]: 0 ΔmmHg
- Changes in S.B.P [1, 4]: -40 ΔmmHg
- Changes in S.B.P [1, 5]: -20 ΔmmHg
- Changes in S.B.P [1, 6]: -20 ΔmmHg
- Changes in S.B.P [1, 7]: -7 ΔmmHg
- Changes in HR [2, 8]: +30 beats/min
- Changes in HR [2, 9]: +35 beats/min
- Changes in HR [2, 10]: +25 beats/min
- Changes in HR [2, 11]: +15 beats/min
- Changes in HR [2, 4]: +40 beats/min
- Changes in HR [2, 5]: +45 beats/min
- Changes in HR [2, 6]: +18 beats/min
- Changes in HR [2, 7]: +15 beats/min
- effects on heart rate (in words) ([2]; Table 3, SH-rats): increase HR

Compound: CN1[C@@H]2CC[C@H]1C[C@@H](OC(=O)C(CO)c1ccccc1)C2 (some centres unmarked) [atropine]
- anti-cholinergic activity of known agent [3]: remarkable but undesired anti-cholinergic activity

Compound: C[C@](N)(Cc1ccc(O)c(O)c1)C(=O)O [α-methyl-DOPA, α-methyl-dopa]
- Changes in S.B.P ([1]; 30 mg/kg p.o., 1st day, 1 h post drug): -10 ΔmmHg
- Changes in S.B.P ([1]; 30 mg/kg p.o., 1st day, 5 h post drug): -20 ΔmmHg
- Changes in S.B.P ([1]; 30 mg/kg p.o., 4th day, 1 h post drug): -10 ΔmmHg
- Changes in S.B.P ([1]; 30 mg/kg p.o., 4th day, 5 h post drug): 0 ΔmmHg
- Changes in S.B.P ([1]; 100 mg/kg p.o., 1st day, 1 h post drug): -10 ΔmmHg
- Changes in S.B.P ([1]; 100 mg/kg p.o., 1st day, 5 h post drug): -25 ΔmmHg
- Changes in S.B.P ([1]; 100 mg/kg p.o., 4th day, 1 h post drug): -20 ΔmmHg
- Changes in S.B.P ([1]; 100 mg/kg p.o., 4th day, 5 h post drug): -25 ΔmmHg
- effects on heart rate (in words) ([2]; rat, in vivo): increase HR
